Assay results published in paper PMC2581485, “Ca^2+ Signaling Occurs via Second Messenger Release from Intraorganelle Synthesis Sites” (Current Biology, 2008).

How the values were obtained:
[1] = molecular target: T1, recombinant ARCα (Strongylocentrotus purpuratus, UniProt A5HNF3); assay: radiometric TLC of […]cADPR formation; assay type: biochemical; settings: 16 nM substrate; labelled compound; 1 h, 20 °C; pH varied, acidic pH preferred
T1 construct: gene ARCA

[2] = molecular target: T2, recombinant ARCβ (Strongylocentrotus purpuratus, UniProt A5HNF4); assay: radiometric TLC of […]cADPR formation; assay type: biochemical; settings: 16 nM substrate; labelled compound; 1 h, 20 °C; pH varied, acidic pH preferred
T2 construct: gene ARCB
T2 sequence (A5HNF4 entry or part of it): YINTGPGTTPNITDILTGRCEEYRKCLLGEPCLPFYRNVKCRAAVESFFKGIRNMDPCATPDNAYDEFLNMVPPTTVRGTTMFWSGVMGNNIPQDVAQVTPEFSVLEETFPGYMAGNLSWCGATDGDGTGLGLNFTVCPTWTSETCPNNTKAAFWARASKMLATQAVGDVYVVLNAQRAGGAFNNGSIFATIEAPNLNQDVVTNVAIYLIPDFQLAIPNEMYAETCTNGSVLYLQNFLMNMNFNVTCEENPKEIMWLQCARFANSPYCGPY

T1 sequence (A5HNF3 entry or part of it): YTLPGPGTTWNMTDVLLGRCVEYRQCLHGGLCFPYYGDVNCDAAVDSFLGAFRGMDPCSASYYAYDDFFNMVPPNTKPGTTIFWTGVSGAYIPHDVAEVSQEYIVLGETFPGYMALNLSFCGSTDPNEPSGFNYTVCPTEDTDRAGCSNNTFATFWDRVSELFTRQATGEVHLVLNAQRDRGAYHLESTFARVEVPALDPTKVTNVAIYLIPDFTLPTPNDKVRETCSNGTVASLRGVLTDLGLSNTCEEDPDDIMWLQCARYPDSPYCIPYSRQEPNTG

Row | Compound | radiometric TLC of [32P]cADPR formation [1] | radiometric TLC of [32P]cADPR formation [2]
1 | N=c1c2ncn3c2ncn1[C@@H]1O[C@H](COP(=O)(O)OP(=O)(O)OC[C@H]2O[C@@H]3[C@H](O)[C@@H]2O)[C@@H](O)[C@H]1O [cADPR] | recombinant (Figure 3D) and endogenous (Figure 3C) sea urchin ARCs preferentially synthesize cADPR | pH dependency of recombinant ARCα or ARCβ is shown
2 | NC(=O)c1ccc[n+]([C@@H]2O[C@H](COP(=O)([O-])OP(=O)(O)OC[C@H]3O[C@@H](n4cnc5c(N)ncnc54)[C@H](O)[C@@H]3O)[C@@H](O)[C@H]2O)c1 [β-NAD^+] | recombinant (Figure 3D) and endogenous (Figure 3C) sea urchin ARCs preferentially synthesize cADPR | pH dependency of recombinant ARCα or ARCβ is shown
